What was measured:
[1] = Vicker's microhardness of mineralized tooth surface; set-up: species or system human; conditions: 10 kg applied load, on the surface, n ≥ 20
Experimental: In addition to nanoindenation measurements, microhardness was also performed on the surface to quantitatively assess the mechanical properties of the mineral layers with larger areas and volumes including the underlying enamel as a composite. Vicker's microhardness was performed on at room temperature using Vicker's indenter on a Wilson Hardness Tukon 1202 microhardness tester at 10 kg applied load (Illinois Tool Works, Lake Bluff, Ill.). At least 20 measurements per group were recorded for obtaining an average and statistical analysis.
Microhardness and nanoindentation differ in both loading range and measurement method as shown in the schematic in FIG. 14 and, for these reasons, both were used in the present work to assess the mechanical durability of the remineralized layers on artificially formed lesions on intact human teeth. In the case of microhardness (Vickers indenter), the measurement was a static one in that the load was applied, released and hardness was obtained by measuring the post-indentation projected area of the indented region (foot print). This method therefore provides information about only the plastically deformed response (plastic deformation) of the material. Furthermore the load applied in this study was 10 kg, lowest allowable by the instrument.

[2] = Remineralization of artificial white spot lesions, SEM and EDXS analyses of new mineral layer; set-up: species or system human; conditions: for thickness of newly formed mineral layer: SEM of cross-sectioned samples, 1 hour treatment
From the text: Extracted teeth with no visible white spot lesions, caries, or any other kind of restorations were collected from dental clinics around the King County area (WA, USA) and disinfected in 10% aqueous bleach solutions. Prior to the experiments, the teeth were cleaned to remove visible blood, gross debris and soft connective tissue using a dental scaler under a light microscope.
Enamel was demineralized to create artificial lesions to mimic white spot lesions and/or incipient caries. The teeth were covered by lacquer leaving a 4-mm wide square window in the enamel close to cemento-enamel junction. The exposed areas of 4×4 mm enamel were treated with a cocktail of acetic acid/CaCl2/KH2PO4 for 2 weeks to establish up to 200 μm deep artificially created non-cavitated white spot lesions (WSL). Samples were then divided into control and test groups. Test groups were treated either with peptide, fluoride, or combination of both (Table 5).
Prior to remineralization, samples requiring peptide treatments (Groups 5 & 6) were incubated in 50 μL of 0.8 mM peptide dissolved in 50 mM Tris Buffer Solution (TBS) (pH:7.4) for 10 minutes at 37° C. Next, treatment samples were exposed to 50 mM TBS containing Ca^2+/PO4^3− (Groups 2, 5) or Ca^2+/PO4^3−/F^− (Groups 3, 4, 6) at concentrations as listed in Table 5 for 1 hour at 37° C., then rinsed with de-ionized (DI) water, dried by forced air and stored at room temperature until characterization.
After re-mineralization experiments were completed, secondary electron imaging (SEI) in the scanning electron microscope (SEM) was used to characterize the surface morphology and to show the thickness of newly formed mineral layer in cross-sections where applicable. Specimen preparation for SEM involved cutting a notch on the back side using a low speed saw (IsoMet™, Buehler, Lake Bluff, Ill., USA) before they were subjected to WSL formation and remineralization as described above. After remineralization step was completed, specimens were rinsed with DI water, air dried gently (<5 PSI), then carefully fractured into 2 pieces along the notch. One of the fractured pieces was mounted on a SEM stub with the mineralizing surface facing up for imaging the surface morphology and second piece was mounted with the cross-section facing up to show the thickness of mineral layer. Mounted specimens were then stored in vacuum for at least 2 hours to remove residual moisture which were then sputter coated with 5-nm thick platinum (SPI-Sputter Module Coater, SPI Supplies, West Chester, Pa., USA). SEM characterization was performed using an FEI Sirion microscope (Sirion, FEI, Hillboro, Oreg., USA) operating at 10 kV acceleration voltage. The chemical composition was measured by an onboard energy dispersive X-ray spectroscopy (EDXS) system (X-Max^N Si drift detector with AZtecEnergy software package, Oxford Instruments, Abingdon, Oxfordshire, UK). The measurements for each group were pooled from 5 specimens per group. The average values and standard deviations were calculated and expressed as the mean±standard error.

[3] = EDXS, 1 hour treatment at 37° C.

With “SYENSHSQAINVDRT [shADP5, 15-amino acid long amelogenin-derived peptide, shortened human ADP5]” the “Hardness (Vicker's microhardness)” value ([1]; listed as Group 6 (shADP5)) was 140.6 +/− 11.3 HV10, MPa, the “Hardness (Vicker's microhardness)” value ([1]; listed as group 6) was 140.6+11.3 HV10, MPa and the “delivery of fluoride into the mineral layer” value ([2]; EDXS) was “allows the delivery and incorporation of fluoride ions into the remineralized layer even at low F concentrations”. For the same sequence, the “Possible Mineral Formed” value [2, 3] was “Only HAP”, the “Remineralized Layer Ca/O” value [2, 3] was 0.56 ± 0.13 and the “Remineralized Layer Ca/P” value ([2]; EDXS, 1 hour treatment at 37° C., listed as 6. Peptide only) was 1.56 ± 0.12. For the same sequence, the “Remineralized Layer Ca/P” value ([2]; EDXS, 1 hour treatment at 37° C., listed as Group 6) was 1.54±0.12, the “Remineralized Layer Ca/P” value ([2]; EDXS, 1 hour treatment at 37° C., listed as Group-6) was 1.56 and the “thickness of newly formed mineral layer” value ([2]; listed as Group 6) was 10 μm. The “thickness of newly formed mineral layer” value ([2]; listed as Group-6) was > 10 μm and the “thickness of newly formed mineral layer” value ([2]; listed as Peptide alone) was 10 μm.
